Measurements published in patent publication US9889146B2, “Benzoxaborole compounds and uses thereof” (priority 2012, dated 2018).
Values after ≈ are worked out from the molar mass of the structure shown. Where two headings read alike, the source gives them in different places.

Assays:
Type in all cases: cell-based
E. coli ATCC 25922 = test: Spontaneous frequency of resistance; details: 24 h
Method: (§1) Spontaneous Resistance Frequency was determined in vitro for GSK2251052 and the resistance mutants in E. coli ATCC 25922, K. pneumoniae ATCC 13883, and P. aeruginosa ATCC 27853 strains were characterized. GSK2251052 was prepared as described in U.S. Pat. No. 7,816,344 (the entire contents of which are hereby incorporated by reference herein). LB broth, Mueller Hinton II broth (adjusted), and Difco noble agar were obtained from Becton Dickinson (Cockeysville, Md., USA). M9 minimal broth containing 1×M9 salt, 0.5 μg/ML thiamine, 1 mM MgSO4, 0.1 mM CaCl2, 2% glucose, was obtained from Teknova (Hollister, Calif., USA). Antibacterial agents ciprofloxacin, ceftazidime, chloramphenicol, gentamycin, kanamycin, polymixin B, tobramycin and trimethoprim, and amino acids were obtained from Sigma Chemicals (St. Louis, Mo., USA). Strains were obtained from ATCC (Manassas, Va., USA).
(§2) Selection of resistance to GSK2251052 was attempted by spreading various amounts of bacteria onto MHBII noble agar plates containing 4×MIC (minimum inhibitory concentration) or 10×MIC of GSK2251052. Colonies were counted after 24 hours and 48 hours incubation at 37° C. The resistance of these colonies was confirmed by their ability to grow on plates containing GSK2251052 at either 4× or 10×MIC. Frequency of resistance was determined by dividing the number of resistant mutants by the total number of cells plated as determined by plating dilutions of the overnight culture on LB plates.

K. pneumoniae ATCC 13883 = test: Spontaneous frequency of resistance; details: 24 h
Method: as §1, §2

P. aeruginosa ATCC 27853 = test: Spontaneous frequency of resistance; details: 24 h
Method: as §1, §2

[1] = test system: E. coli ATCC 25922 wild type and mutants; test: MIC, wild type and GSK2251052 resistant mutants; details: Escherichia coli
Method: as §1
(§3) Susceptibility tests were performed following the recommendations for aerobic bacteria (M7-A7) from the Clinical and Laboratories Standards Institute (CLSI).
(§4) Laboratory generated mutants resistant to GSK2251052 contain mutations in the editing domain of LeuRS. Six to ten GSK2251052 resistant colonies of E. coli ATCC 25922, K. pneumoniae ATCC 13883 and P. aeruginosa ATCC 27853 were selected for further analysis and their MICs to GSK2251052 were determined (Table 4-7).

[2] = test system: K. pneumoniae ATCC 13883 wild type and mutants; test: MIC, wild type and GSK2251052 resistant mutants; details: Klebsiella pneumoniae
Method: as §1, §3, §4

[3] = test system: P. aeruginosa ATCC 27853 wild type and mutants; test: MIC, wild type and GSK2251052 resistant mutants; details: Pseudomonas aeruginosa
Method: as §1, §3, §4

[4] = test system: E. coli ATCC 25922, K. pneumoniae ATCC 13883 and P. aeruginosa ATCC 27853; test: MIC, three strains and their mutants summarised; details: MIC in E. coli, P. aeruginosa and K. pneumoniae mutants versus wild-type
Method: as §1, §3, §4
GSK2251052 resistant mutants were not cross-resistant to commercial antibiotics.

Enterobacteriaceae = test: organism not typed
E. coli (WT) = test: microbe, parasite or virus in culture; details: for MIC90: Escherichia coli
E. coli (ESBL) = test: microbe, parasite or virus in culture; details: Escherichia coli
Klebsiella spp. (WT) = test: microbe, parasite or virus in culture
Klebsiella spp. (ESBL) = test: microbe, parasite or virus in culture; details: Klebsiella
Klebsiella spp. (KPC) = test: microbe, parasite or virus in culture; details: Klebsiella
[5] = test system: Enterobacter aerogenes (WT); test: microbe, parasite or virus in culture; details: for MIC90: Klebsiella aerogenes
[6] = test system: Enterobacter aerogenes (AmpC); test: microbe, parasite or virus in culture; details: Klebsiella aerogenes
[7] = test system: Enterobacter cloacae (WT); test: microbe, parasite or virus in culture; details: 202 isolates, read-out: MIC90
[8] = test system: Enterobacter cloacae (AmpC); test: microbe, parasite or virus in culture; details: Enterobacter cloacae
[9] = test system: Citrobacter freundii (AmpC); test: microbe, parasite or virus in culture; details: Citrobacter freundii
[10] = test system: Morganella morganii (AmpC); test: microbe, parasite or virus in culture; details: Morganella morganii
Proteus mirabilis (WT) = test: microbe, parasite or virus in culture
Proteus vulgaris (WT) = test: microbe, parasite or virus in culture
Providencia spp.(all) = test: microbe, parasite or virus in culture
S. marcescens (AmpC) = test: microbe, parasite or virus in culture; details: Serratia marcescens
P. aeruginosa = test: In vitro activity against P. aeruginosa clinical isolates
Method: GSK2251052 was tested for activity against P. aeruginosa, and its activity was compared to other antibiotics of known activity. The results are shown below in Tables 2a and 2b. Of 2,008 clinical isolates tested (from 2009-2010 subjects, of which 40% were from North America) greater than 90% were susceptible to GSK2251052 based on a potential susceptible breakpoint of ≦4 μg/mL.

[11] = ATCC25922, E wt, read-out: MICs
[12] = ATCC25922, read-out: MICs, mutant E 101
[13] = ATCC25922, read-out: MICs, mutant E 102
[14] = ATCC25922, read-out: MICs, mutant E 107
[15] = ATCC13883, K wt., read-out: MICs
[16] = ATCC13883, read-out: MICs, mutant K 104
[17] = ATCC13883, read-out: MICs, mutant K 105
[18] = ATCC13883, read-out: MICs, mutant K 107
[19] = ATCC13883, read-out: MICs, mutant K 108
[20] = ATCC13883, read-out: MICs, mutant K 110
[21] = ATCC27853, P wt., read-out: MICs
[22] = ATCC27853, read-out: MICs, mutant P 101
[23] = ATCC27853, read-out: MICs, mutant P106
[24] = ATCC27853, read-out: MICs, mutant P108

NC[C@H]1O[C@H](O[C@H]2[C@H](O)[C@@H](O[C@H]3O[C@H](CO)[C@@H](O)[C@H](N)[C@H]3O)[C@H](N)C[C@@H]2N)[C@H](N)C[C@@H]1O [Tobramycin]
Frequency of Resistance (E. coli ATCC 25922; 4 X MIC): 1 × 10^−5
Frequency of Resistance (E. coli ATCC 25922; 10 X MIC): 4 × 10^−6
Frequency of Resistance (K. pneumoniae ATCC 13883; 4 X MIC): 1 × 10^−6
Frequency of Resistance (K. pneumoniae ATCC 13883; 10 X MIC): 5 × 10^−8
Frequency of Resistance (P. aeruginosa ATCC 27853; 4 X MIC): 1 × 10^−6
Frequency of Resistance (P. aeruginosa ATCC 27853; 10 X MIC): 9 × 10^−8
MIC [1, 11]: 1 µg/mL (≈ 2.14 µM)
MIC [1, 12]: 1 µg/mL (≈ 2.14 µM)
MIC [1, 13]: 2 µg/mL (≈ 4.28 µM)
MIC [1, 14]: 1 µg/mL (≈ 2.14 µM)
MIC [2, 15]: 0.5 µg/mL (≈ 1.07 µM)
MIC [2, 16]: 0.5 µg/mL (≈ 1.07 µM)
MIC [2, 17]: 0.5 µg/mL (≈ 1.07 µM)
MIC [2, 18]: 0.5 µg/mL (≈ 1.07 µM)
MIC [2, 19]: 0.5 µg/mL (≈ 1.07 µM)
MIC [2, 20]: 0.5 µg/mL (≈ 1.07 µM)
MIC [3, 21]: 0.5 µg/mL (≈ 1.07 µM)
MIC [3, 22]: 0.5 µg/mL (≈ 1.07 µM)
MIC [3, 23]: 0.5 µg/mL (≈ 1.07 µM)
MIC [3, 24]: 0.5 µg/mL (≈ 1.07 µM)
cross-resistance of GSK2251052 resistant mutants [4]: did not have any significant difference in MIC values than wild-type

C[C@H]1COc2c(N3CCN(C)CC3)c(F)cc3c(=O)c(C(=O)O)cn1c23 [Levofloxacin]
MIC90 (Enterobacteriaceae; Enterobacteriaceae, 2029 isolates, read-out: MIC90): 16 µg/mL (≈ 44.3 µM)
MIC90 (E. coli (WT); E. coli (WT), 214 isolates, read-out: MIC90): 16 µg/mL (≈ 44.3 µM)
MIC90 (E. coli (ESBL)): > 16 µg/mL
MIC90 (Klebsiella spp. (WT); Klebsiella spp. (WT), 159 isolates, read-out: MIC90): 4 µg/mL (≈ 11.1 µM)
MIC90 (Klebsiella spp. (ESBL)): > 16 µg/mL
MIC90 (Klebsiella spp. (KPC)): > 16 µg/mL
MIC90 ([5]; Enterobacter aerogenes (WT), 199 isolates, read-out: MIC90): ≤ 0.5 µg/mL
MIC90 [6]: 16 µg/mL (≈ 44.3 µM)
MIC90 [7]: ≤ 0.5 µg/mL
MIC90 [8]: 16 µg/mL (≈ 44.3 µM)
MIC90 [9]: 8 µg/mL (≈ 22.1 µM)
MIC90 [10]: > 16 µg/mL
MIC90 (Proteus mirabilis (WT); Proteus mirabilis (WT), 235 isolates, read-out: MIC90): 8 µg/mL (≈ 22.1 µM)
MIC90 (Proteus vulgaris (WT); Proteus vulgaris (WT), 41 isolates, read-out: MIC90): ≤ 5 µg/mL
MIC90 (Providencia spp.(all); Providencia spp.(all), 68 isolates, read-out: MIC90): > 16 µg/mL
MIC90 (S. marcescens (AmpC)): 4 µg/mL (≈ 11.1 µM)
% susceptible (P. aeruginosa; P. aeruginosa, 2,008 clinical isolates, GSK2251052 based on potential susceptible breakpoint of ≦4 μg/mL): 63.7%
Frequency of Resistance (E. coli ATCC 25922; 4 X MIC): 2 × 10^−8
Frequency of Resistance (E. coli ATCC 25922; 10 X MIC): <5 × 10^−9
Frequency of Resistance (K. pneumoniae ATCC 13883; 4 X MIC): 2 × 10^−7
Frequency of Resistance (K. pneumoniae ATCC 13883; 10 X MIC): <3 × 10^−9
Frequency of Resistance (P. aeruginosa ATCC 27853; 4 X MIC): 1 × 10^−7
Frequency of Resistance (P. aeruginosa ATCC 27853; 10 X MIC): <1 × 10^−9

C[C@@H](O)[C@H]1C(=O)N2C(C(=O)O)=C(SCCN=CN)C[C@H]12 [Imipenem]
MIC90 (Enterobacteriaceae): 2 µg/mL (≈ 6.68 µM)
susceptibility category of MIC90 (Enterobacteriaceae): **2
susceptibility category of MIC90 (E. coli (WT)): *0.25
MIC90 (E. coli (WT)): 0.25 µg/mL (≈ 0.835 µM)
MIC90 (E. coli (ESBL)): 0.5 µg/mL (≈ 1.67 µM)
susceptibility category of MIC90 (Klebsiella spp. (WT)): *0.25
MIC90 (Klebsiella spp. (WT); Klebsiella): 0.25 µg/mL (≈ 0.835 µM)
MIC90 (Klebsiella spp. (ESBL)): 0.5 µg/mL (≈ 1.67 µM)
MIC90 (Klebsiella spp. (KPC)): 64 µg/mL (≈ 214 µM)
susceptibility category of MIC90 [5]: **2
MIC90 [5]: 2 µg/mL (≈ 6.68 µM)
MIC90 [6]: 2 µg/mL (≈ 6.68 µM)
MIC90 [7]: 1 µg/mL (≈ 3.34 µM)
MIC90 [8]: 1 µg/mL (≈ 3.34 µM)
MIC90 [9]: 1 µg/mL (≈ 3.34 µM)
MIC90 [10]: 4 µg/mL (≈ 13.4 µM)
susceptibility category of MIC90 (Proteus mirabilis (WT)): ***4
MIC90 (Proteus mirabilis (WT); Proteus mirabilis): 4 µg/mL (≈ 13.4 µM)
susceptibility category of MIC90 (Proteus vulgaris (WT)): ***4
MIC90 (Proteus vulgaris (WT); Proteus vulgaris): 4 µg/mL (≈ 13.4 µM)
susceptibility category of MIC90 (Providencia spp.(all)): **2
MIC90 (Providencia spp.(all); Providencia): 2 µg/mL (≈ 6.68 µM)
MIC90 (S. marcescens (AmpC)): 2 µg/mL (≈ 6.68 µM)
% susceptible (P. aeruginosa): 72.9%

COc1cc(Cc2cnc(N)nc2N)cc(OC)c1OC [Trimethoprim]
MIC [1, 11]: 0.5 µg/mL (≈ 1.72 µM)
MIC [1, 12]: 1 µg/mL (≈ 3.44 µM)
MIC [1, 13]: 0.5 µg/mL (≈ 1.72 µM)
MIC [1, 14]: 1 µg/mL (≈ 3.44 µM)
MIC [2, 15]: 1 µg/mL (≈ 3.44 µM)
MIC [2, 16]: 1 µg/mL (≈ 3.44 µM)
MIC [2, 17]: 1 µg/mL (≈ 3.44 µM)
MIC [2, 18]: 1 µg/mL (≈ 3.44 µM)
MIC [2, 19]: 1 µg/mL (≈ 3.44 µM)
MIC [2, 20]: 1 µg/mL (≈ 3.44 µM)
MIC [3, 21]: > 64 µg/mL
MIC [3, 22]: > 64 µg/mL
MIC [3, 23]: > 64 µg/mL
MIC [3, 24]: > 64 µg/mL
cross-resistance of GSK2251052 resistant mutants [4]: did not have any significant difference in MIC values than wild-type
